Measurements from publication PMC11483914, “Appendage- and Scaffold-Diverse Electrophilic and Photoreactive Probes for Integrated Phenotypic Screening–Target Identification Campaigns via a Minimalist Bifunctional Isocyanide” (ACS Omega, 2024).

Legend:
[1] = target: T1, protein disulfide isomerase A1 (PDIA1) (Homo sapiens, UniProt P07237); test: insulin reductase (insulin aggregation) assay; assay type: biochemical; details: covalent; a-site C53
T1 construct: gene P4HB; full-length PDIA1 overexpressed in HEK293T (anti-myc detected) for labelling, also endogenous

[2] = target: T1, protein disulfide isomerase A1 (PDIA1); test: in-gel fluorescence after CuAAC, SKOV-3 wildtype versus PDIA1 knockout and HEK293T overexpression; assay type: cell-based; details: 500 nM, 1 h

T1 sequence (P07237 18-508): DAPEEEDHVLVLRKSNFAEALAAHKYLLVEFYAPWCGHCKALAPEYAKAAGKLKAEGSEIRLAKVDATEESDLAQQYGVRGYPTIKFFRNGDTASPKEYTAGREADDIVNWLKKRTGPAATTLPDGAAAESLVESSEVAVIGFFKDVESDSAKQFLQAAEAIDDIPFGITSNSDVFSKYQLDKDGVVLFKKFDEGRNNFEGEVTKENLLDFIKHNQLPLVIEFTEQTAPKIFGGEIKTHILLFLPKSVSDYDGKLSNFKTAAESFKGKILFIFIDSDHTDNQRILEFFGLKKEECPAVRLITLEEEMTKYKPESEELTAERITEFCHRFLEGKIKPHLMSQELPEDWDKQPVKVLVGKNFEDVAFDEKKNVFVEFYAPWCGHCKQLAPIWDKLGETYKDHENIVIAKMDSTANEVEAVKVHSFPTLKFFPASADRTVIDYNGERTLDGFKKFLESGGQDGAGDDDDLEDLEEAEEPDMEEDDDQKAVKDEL

C#CCN(CCNC(=O)C1(N(CC=C)C(=O)c2ccc(Cl)cc2)CCN(Cc2ccccc2)CC1)C(=O)CCl [4a, FFSMP 4a]
inhibition of PDIA1 activity [1]: FFSMP 4a was shown to inhibit PDIA1 at low μM concentrations
covalent labelling [2]: confirming PDIA1 as a predominant protein target of biologically active FFSMP 4a
